The target of one data set is T1, Pin1 (Homo sapiens, UniProt Q13526).
T1 construct: purchased Sino Biological Inc., Beijing, China
Nature of the data set: Pin1 inhibition, protease-coupled assay. The format is biochemical. To be noted: 10 °C; for inhibition at 10 µM: Pin1, compound at 10 μM; for IC50: Pin1, protease-coupled assay. The procedure: To investigate the Pin1 inhibitory potency of all synthesized compounds, the inhibition ratio at 10 μM or IC50 of all synthesized compounds was determined using protease-coupled assay.
Pin1 inhibitory activities were measured at 10 °C by protease-coupled assay as reported previous. Suc-Ala-Glu-cis-Pro-Phe-4-nitroaniline (Bachem, Bubendorf, Switzerland) in 0.47 mol/L, LiCl/trifluoroethanol was used as the substrate. The assay buffer (860 μL of 35 mM HERES at pH 7.8), Pin1 (20 μL, Bought from Sino Biological Inc., Beijing, China) and target compounds (10 μL of varying comcentrations in DMSO) were pre-equilibtated in the cuvette at 10 °C for 30 min. Then, 150 uL of ice-cooled chymotrypsin (60 mg/mL in 0.001 M/HCl) was added and mixed immediately. Additional substrate (40 μL) was added to start the assay and the reaction was monitored by absorbance at 390 nm for 90 s. For each compound, four concentrations (10 μM, 3.3 μM, 1.1 μM, 0.37 μM) were chosen, and the assay was performed in duplicate. The data was analyzed by Graphpad Prism 6.0.

The subject of the next data set is PC-3 cells. Nature of the data set: In vitro anti-proliferative MTT assay. Conditions: for GI50: Homo sapiens, PC-3 cells, MTT, 96 h; for antiproliferative activity against human prostate cancer PC-3 cells: result in words. The format is cell-based, human. The procedure:
As for Pin1 was overexpressed in human prostate cancer cells, the antiproliferative activity of these benzimidazole derivatives against PC-3 cells were further evaluated by MTT assay. Meanwhile, the polar surface area (PSA) of these compounds was calculated under the optimal conformation since PSA is the key indicator of membrane permeability.
The tested cells were plated in 96-well microtiter plates with a density of 2,000 cells/well and incubated in a humidified atmosphere with 5% CO2 at 37 °C for 24 h. The cells were then exposed to tested compounds of different concentrations in triplicate. After incubated for 96 h, 50 μL of 3-(4,5-dimethylthiazol-2-yl)-2,5-diphenyltetrazolium bromide (MTT) solution (2 mg/mL) was added to each well and incubated for an additional 4 h. Then the suspernatant was discarded and the fromazan was dissolved in 200 μL of dimethyl sulfoxide (DMSO). The plate was oscillated subtly at room temperature for 10 min before the absorbance was measured at 570 nm by a microplate reader. Cell inhibitory ratio was calculated with the following formula:Inhibitory Rate (%) = [(Acontrol − Atreated)/Acontrol] × 100%(1)
The GI50 was determined as the concentration that caused half inhibition of cell proliferation. All experiments were performed three times independently, and the results were reported presented as the mean.
In general terms: Formazan colour is commonly taken as a measure of viable cells.

Each structure is given as a SMILES string.

T1 sequence (Q13526 whole entry): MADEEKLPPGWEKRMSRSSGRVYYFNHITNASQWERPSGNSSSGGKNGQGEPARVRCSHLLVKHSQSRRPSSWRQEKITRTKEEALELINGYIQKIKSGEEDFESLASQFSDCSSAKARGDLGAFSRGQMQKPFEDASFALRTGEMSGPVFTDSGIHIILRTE

The melting point is the temperature of the solid-liquid transition. For orientation: inhibition means the drop in the measured response relative to a control, in per cent. Higher therefore signals a response far below the control. Usually IC50 stands for the point on the concentration scale where inhibition reaches its midpoint. For orientation: GI50 means the concentration that inhibits growth by half. Molecule `O=C(CCn1c(-c2nc(C(=O)O)cs2)nc2ccccc21)Nc1ccc(C(F)(F)F)cc1` [Compound 13h, 2-(1-(3-Oxo-3-((4-(trifluoromethyl)phenyl)amino)propyl)-1H-benzo[d]imidazol-2-yl)thiazole-4-carboxylic acid] registered a melting point of 176 to 178 °C. At Pin1, this molecule returned an inhibition at 10 µM of 81% and an IC50 of 1.15 µM. The molecule further displayed a GI50 in the data set with PC-3 cells greater than 50 µM.

On to `O=C(O)/C=C/c1nc2ccccc2n1CCC(=O)N1CCOCC1` [Compound 6b, (E)-3-(1-(3-Morpholino-3-oxopropyl)-1H-benzo[d]imidazol-2-yl) acrylic acid], for which the melting point lay in the range of 207 to 209 °C. Also, the inhibition at 10 µM at Pin1 stood at 27%. The molecule also displayed a concentration for 50% growth inhibition (GI50) with PC-3 cells greater than 50 µM.

The molecule `O=C(CCn1c(-c2nc(C(=O)O)cs2)nc2ccccc21)Nc1ccccc1` [Compound 13a, 2-(1-(3-Oxo-3-(phenylamino)propyl)-1H-benzo[d]imidazol-2-yl)thiazole-4-carboxylic acid] displayed a melting point of 226 to 228 °C. This molecule gave an inhibition at 10 µM at Pin1 of 73%. The molecule further showed a GI50 in the data set on PC-3 cells greater than 50 µM.

With `COc1cccc(NC(=O)CCn2c(-c3nc(C(=O)O)cs3)nc3ccccc32)c1` [Compound 13d, 2-(1-(3-((3-Methoxyphenyl)amino)-3-oxopropyl)-1H-benzo[d]imidazol-2-yl)thiazole-4-carboxylic acid], the melting point lay in the range of 223 to 225 °C. Further, at 10 µM the inhibition against Pin1 was 75%. The concentration for 50% growth inhibition (GI50) in the data set with PC-3 cells was greater than 50 µM.

For the molecule `COc1ccc(CNC(=O)CCn2c(/C=C/C(=O)O)nc3ccccc32)cc1` [Compound 6l, (E)-3-(1-(3-((4-Methoxybenzyl)amino)-3-oxopropyl)-1H-benzo[d]imidazol-2-yl)acrylic acid], the melting point was 203 to 205 °C. Further, the inhibition at 10 µM against Pin1 amounted to 42%. For the same molecule, the concentration for 50% growth inhibition (GI50) in the data set on PC-3 cells is greater than 50 µM.

The molecule `O=C(CCn1c(-c2nc(C(=O)O)cs2)nc2ccccc21)Nc1ccccc1Br` [Compound 13c, 2-(1-(3-((2-Bbromophenyl)amino)-3-oxopropyl)-1H-benzo[d]imidazol-2-yl)thiazole-4-carboxylic acid] had a melting point of 186 to 188 °C. The molecule also yielded an inhibition at 10 µM against Pin1 of 79%. The 50% growth inhibitory concentration (GI50) in the data set with PC-3 cells was greater than 50 µM.

As to `COc1cc(NC(=O)CCn2c(-c3nc(C(=O)O)cs3)nc3ccccc32)cc(OC)c1` [Compound 13e, 2-(1-(3-((3,5-Dimethoxyphenyl)amino)-3-oxopropyl)-1H-benzo[d]imidazol-2-yl)thiazole-4-carboxylic acid], the melting point was 208 to 210 °C. Also, at 10 µM the inhibition on Pin1 was 79%. Also, the GI50 with PC-3 cells was greater than 50 µM.

The molecule `Cc1cc(C)c(NC(=O)CCn2c(CCC(=O)O)nc3ccccc32)c(C)c1` [Compound 7c, 3-(1-(3-(Mesitylamino)-3-oxopropyl)-1H-benzo[d]imidazol-2-yl)propanoic acid] came in with a melting point of 222 to 224 °C. Further, on Pin1, the inhibition at 10 µM amounted to 60%. In the data set with PC-3 cells, the concentration for 50% growth inhibition (GI50) was determined as 28.6 µM and the “antiproliferative activity against human prostate cancer PC-3 cells” value (from here on “antiproliferative activity”) is recorded as “moderate antiproliferative activity”.

Molecule `O=C(O)/C=C/c1nc2ccccc2n1CCC(=O)N1CCCCC1` [Compound 6a, (E)-3-(1-(3-oxo-3-(piperidin-1-yl)propyl)-1H-benzo[d]imidazol-2-yl)acrylic acid] registered a melting point of 128 to 130 °C. This molecule gave an inhibition at 10 µM against Pin1 of 28%. For the same molecule, the GI50 with PC-3 cells is greater than 50 µM.

For the molecule `O=C(O)/C=C/c1nc2ccccc2n1CCC(=O)Nc1cc(Cl)cc(Cl)c1` [Compound 6n, (E)-3-(1-(3-((3,5-Dichlorophenyl)amino)-3-oxopropyl)-1H-benzo[d]imidazol-2-yl)acrylic acid], the melting point was 152 to 154 °C. At Pin1, this molecule yielded an inhibition at 10 µM of 71% and a concentration for half-maximal inhibition (IC50) of 1.87 µM. In addition, in the data set with PC-3 cells, the concentration for 50% growth inhibition (GI50) was 20.3 µM and the “antiproliferative activity” value is “moderate antiproliferative activity”.

With `COc1ccc(NC(=O)CCn2c(/C=C/C(=O)O)nc3ccccc32)cc1` [Compound 6e, (E)-3-(1-(3-((4-Methoxyphenyl)amino)-3-oxopropyl)-1H-benzo[d]imidazol-2-yl)acrylic acid], the melting point fell in the range of 215 to 217 °C. Also, the inhibition at 10 µM against Pin1 was 48%. The GI50 in the data set with PC-3 cells was greater than 50 µM.

With `O=C(CCn1c(-c2nc(C(=O)O)cs2)nc2ccccc21)Nc1cccc(C(F)(F)F)c1` [Compound 13g, 2-(1-(3-Oxo-3-((3-(trifluoromethyl)phenyl)amino)propyl)-1H-benzo[d]imidazol-2-yl)thiazole-4-carboxylic acid], the melting point was in the range of 178 to 180 °C. At Pin1, the inhibition at 10 µM amounted to 99% and half-maximal inhibition (IC50) required 0.37 µM. In addition, the GI50 in the data set on PC-3 cells was greater than 50 µM.

`Cc1ccc(NC(=O)CCn2c(-c3nc(C(=O)O)cs3)nc3ccccc32)cc1F` [Compound 13j, 2-(1-(3-((3-Fluoro-4-methylphenyl)amino)-3-oxopropyl)-1H-benzo[d]imidazol-2-yl)thiazole-4-carboxylic acid] displayed a melting point of 204 to 206 °C. Further, the inhibition at 10 µM against Pin1 is 72%. The molecule further showed a GI50 in the data set with PC-3 cells greater than 50 µM.

For `O=C(CCn1c(-c2nc(C(=O)O)cs2)nc2ccccc21)Nc1cccc([N+](=O)[O-])c1` [Compound 13f, 2-(1-(3-((3-Nitrophenyl)amino)-3-oxopropyl)-1H-benzo[d]imidazol-2-yl)thiazole-4-carboxylic acid], the melting point lay in the range of 234 to 236 °C. Further, 10 µM produced 40% inhibition against Pin1. In addition, in the data set on PC-3 cells, the GI50 was greater than 50 µM.

In turn, `Cc1cc(C)c(NC(=O)CCn2c(/C=C/C(=O)O)nc3ccccc32)c(C)c1` [Compound 6o, (E)-3-(1-(3-((2,4,6-Trimethylphenyl)amino)-3-oxopropyl)-1H-benzo[d]imidazol-2-yl)acrylic acid] showed a melting point of 275 to 278 °C. Moreover, on Pin1, the inhibition at 10 µM came out at 84% and the midpoint of inhibition, the IC50, lay at 0.97 µM. Moreover, in the data set with PC-3 cells, it took 11.1 µM to inhibit growth by half (GI50) and the “antiproliferative activity” value was “moderate antiproliferative activity”.

`O=C(O)/C=C/c1nc2ccccc2n1CCC(=O)Nc1ccc(Br)cc1` [Compound 6g, (E)-3-(1-(3-((4-Bromophenyl)amino)-3-oxopropyl)-1H-benzo[d]imidazol-2-yl)acrylic acid] had a melting point of 192 to 194 °C. Moreover, on Pin1, the inhibition at 10 µM came out at 66% and the IC50 amounted to 1.73 µM. In addition, in the data set with PC-3 cells, it took 14.1 µM to inhibit growth by half (GI50) and the “antiproliferative activity” value is reported as “moderate antiproliferative activity”.

With `O=C(O)/C=C/c1nc2ccccc2n1CCC(=O)NCCc1ccc(Br)cc1` [Compound 6k, (E)-3-(1-(3-((4-Bromophenethyl)amino)-3-oxopropyl)-1H-benzo[d]imidazol-2-yl)acrylic acid], the melting point lay within 203 to 205 °C. Also, on Pin1, the inhibition at 10 µM amounted to 62%. In the data set on PC-3 cells, the 50% growth inhibitory concentration (GI50) is greater than 50 µM.

In turn, `O=C1C=CC(=O)c2c(O)cccc21` [Juglone, reference compound] yielded a half-inhibitory concentration (IC50) on Pin1 of 10 µM. The molecule further came in with a 50% growth inhibitory concentration (GI50) with PC-3 cells of 4.89 µM.
